Laboratory results taken from ChEMBL document CHEMBL1201862, “PubChem BioAssay data set” (2004).
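Cultured in 96-well plates, cells were exposed to test compound for 48 hours across five concentrations. At the GI50, growth is halved.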 The source made the active and inactive calls. Rule as the data show it: active = GI50 up to about 1.1 µM and inactive = higher.

Key:
Assay in all cases: NCI-60 cell line screen, 48 h
[1] = system: CAKI-1
[2] = system: NCI-H522
[3] = system: 786-0
[4] = system: HCT-15
[5] = system: UO-31
[6] = system: SK-MEL-5
[7] = system: NCI-H226
[8] = system: UACC-257
[9] = system: UACC-62
[10] = system: SF-295
[11] = system: EKVX
[12] = system: SF-539
[13] = system: MDA-MB-435
[14] = system: RXF 393
[15] = system: TK-10
[16] = system: CCRF-CEM
[17] = system: MOLT-4
[18] = system: NCI-H23
[19] = system: ACHN
[20] = system: OVCAR-3

| SMILES | GI50 [1] | GI50 [2] | GI50 [3] | GI50 [4] | GI50 [5] | GI50 [6] | GI50 [7] | GI50 [8] | GI50 [9] | GI50 [10] | GI50 [11] | GI50 [12] | GI50 [13] | GI50 [14] | GI50 [15] | GI50 [16] | GI50 [17] | GI50 [18] | GI50 [19] | GI50 [20] |
| --- | --- | --- | --- | --- | --- | --- | --- | --- | --- | --- | --- | --- | --- | --- | --- | --- | --- | --- | --- | --- |
| CCOC(=O)c1c(O)nc(O)c(CC)c1C | > 100 µM (inactive) | > 100 µM (inactive) | > 100 µM (inactive) | > 100 µM | > 100 µM (inactive) | > 100 µM (inactive) | > 100 µM (inactive) | > 100 µM (inactive) | > 100 µM (inactive) | > 100 µM (inactive) | > 100 µM (inactive) | 67 µM (inactive) | > 100 µM (inactive) | > 100 µM (inactive) | > 100 µM (inactive) | > 100 µM (inactive) | > 100 µM (inactive) | > 100 µM (inactive) | > 100 µM (inactive) | > 100 µM (inactive) |
| C/C(=C\c1ccc2c(c1)OCO2)[N+](=O)[O-] | 2.28 µM (inactive) | 1.64 µM (inactive) | 1.56 µM (inactive) | 1.96 µM | 1.19 µM (inactive) | 1.91 µM (inactive) | 3.84 µM (inactive) | 2.43 µM (inactive) | 2.01 µM (inactive) | 2.85 µM (inactive) | 4.08 µM (inactive) | 2.91 µM (inactive) | 2.21 µM (inactive) | 1.46 µM (inactive) | 2.45 µM (inactive) | < 0.01 µM (active) | 0.195 µM (active) | 2.46 µM (inactive) | 2.01 µM (inactive) | 1.66 µM (inactive) |
| CCOC1OCCCC1Br (stereo not given) | > 100 µM (inactive) | > 100 µM (inactive) | > 100 µM (inactive) | > 100 µM | > 100 µM (inactive) | > 100 µM (inactive) | > 100 µM (inactive) | > 100 µM (inactive) | 72.1 µM (inactive) | > 100 µM (inactive) | > 100 µM (inactive) | > 100 µM (inactive) | > 100 µM (inactive) | > 100 µM (inactive) | > 100 µM (inactive) | > 100 µM (inactive) | > 100 µM (inactive) | > 100 µM (inactive) | > 100 µM (inactive) | > 100 µM (inactive) |
| C/C(=N/NC(=S)Nc1ccc(Cl)cc1)c1cccc(/C(C)=N\NC(=S)Nc2ccc(Cl)cc2)n1 | 3.72 µM (inactive) | 4.29 µM (inactive) | 0.594 µM (active) | 2.47 µM | 5.92 µM (inactive) | 1.86 µM (inactive) | 3.54 µM (inactive) | 4.5 µM (inactive) | 3.48 µM (inactive) | 3.34 µM (inactive) | 5.45 µM (inactive) | 1.48 µM (inactive) | 12.3 µM (inactive) | 4.01 µM (inactive) | 2.81 µM (inactive) | 1.68 µM (inactive) | 2.34 µM (inactive) | 13.2 µM (inactive) | 2.54 µM (inactive) | 1.49 µM (inactive) |
| CC(=O)OC(CN1CCN(c2ccccn2)CC1)Cn1sc2nc(C)cc(C)c2c1=O (stereo not given) | 18.9 µM (inactive) | 7.03 µM (inactive) | 14.9 µM (inactive) | 20 µM | 16.3 µM (inactive) | 13.2 µM (inactive) | > 100 µM (inactive) | 17.7 µM (inactive) | 16.4 µM (inactive) | > 100 µM (inactive) | 17.3 µM (inactive) | 14.6 µM (inactive) | 16.9 µM (inactive) | 20.2 µM (inactive) | 17.3 µM (inactive) | 5.78 µM (inactive) | 5.58 µM (inactive) | 20.8 µM (inactive) | 16.4 µM (inactive) | 21.2 µM (inactive) |
| Cc1c2ccnc(C(=O)NCCN(C)C)c2cc2c3cc(O)ccc3n(C)c12 | < 0.01 µM (active) | 0.236 µM (active) | 0.0542 µM (active) | 0.12 µM | 0.267 µM (active) | 0.149 µM (active) | 0.177 µM (active) | 1.53 µM (inactive) | 0.15 µM (active) | 0.0671 µM (active) | 0.957 µM (active) | 0.0603 µM (active) | 0.282 µM (active) | 0.29 µM (active) | 2 µM (inactive) | < 0.0145 µM (active) | < 0.01 µM (active) | 0.125 µM (active) | 0.0188 µM (active) | 0.357 µM (active) |
| O=C(CCc1cc(O)cc(O)c1)NCCc1cc(O)cc(OCc2ccccc2)c1 | > 100 µM (inactive) | 36.5 µM (inactive) | 64.9 µM (inactive) | 68.9 µM | 22.2 µM (inactive) | 19.1 µM (inactive) | 62.7 µM (inactive) | 82.4 µM (inactive) | 32.1 µM (inactive) | 32.9 µM (inactive) | 57.3 µM (inactive) | 36.7 µM (inactive) | 36.2 µM (inactive) | 37 µM (inactive) | > 100 µM (inactive) | > 10 µM (inactive) | 28.9 µM (inactive) | 23.4 µM (inactive) | 24.7 µM (inactive) | 35.7 µM (inactive) |
| CC(=O)N1c2ccccc2Sc2cc(C(O)(C(F)(F)F)C(F)(F)F)ccc21 | > 10 µM (inactive) | > 10 µM (inactive) | > 10 µM (inactive) | > 10 µM | > 10 µM (inactive) | 7.26 µM (inactive) | > 10 µM (inactive) | > 10 µM (inactive) | > 10 µM (inactive) | > 10 µM (inactive) | > 10 µM (inactive) | > 10 µM (inactive) | > 10 µM (inactive) | > 10 µM (inactive) | > 10 µM (inactive) | > 10 µM (inactive) | > 10 µM (inactive) | > 10 µM (inactive) | > 10 µM (inactive) | > 10 µM (inactive) |
| CCOC(=O)c1[nH]cc(C)c1-c1ccc2c(-c3ccccc3)nc3ccccc3n12 | 5.89 µM (inactive) | 1.53 µM (inactive) | 3.56 µM (inactive) | 3.55 µM | 3.86 µM (inactive) | 2.37 µM (inactive) | 5.22 µM (inactive) | 5.3 µM (inactive) | 2.73 µM (inactive) | 3.52 µM (inactive) | 3.82 µM (inactive) | 3.12 µM (inactive) | 2.23 µM (inactive) | 2.03 µM (inactive) | 3.21 µM (inactive) | 2.68 µM (inactive) | 2.31 µM (inactive) | 5.05 µM (inactive) | 4.01 µM (inactive) | 4.13 µM (inactive) |
| C=CCN1CCC2(CC1)NC(=O)c1ccccc1O2 | > 100 µM (inactive) | > 100 µM (inactive) | > 100 µM (inactive) | > 100 µM | > 100 µM (inactive) | > 100 µM (inactive) | > 100 µM (inactive) | > 100 µM (inactive) | > 100 µM (inactive) | > 100 µM (inactive) | > 100 µM (inactive) | > 100 µM (inactive) | > 100 µM (inactive) | > 100 µM (inactive) | > 100 µM (inactive) | > 100 µM (inactive) | > 100 µM (inactive) | > 100 µM (inactive) | > 100 µM (inactive) | > 100 µM (inactive) |
| CCCCCCCCC(=O)NCCN(CCN)C(=O)CCCCCCCC | 17.5 µM (inactive) | 2.65 µM (inactive) | 4.9 µM (inactive) | 5.19 µM | 12.7 µM (inactive) | 10.3 µM (inactive) | 18.5 µM (inactive) | 18.4 µM (inactive) | 10.7 µM (inactive) | 4.99 µM (inactive) | 18.2 µM (inactive) | 5.7 µM (inactive) | 13.7 µM (inactive) | 13.5 µM (inactive) | 14.6 µM (inactive) | 2.38 µM (inactive) | 3.78 µM (inactive) | 17.3 µM (inactive) | 8.67 µM (inactive) | 15.2 µM (inactive) |
| COc1ccc(CC2C3=C(CCN2C(=O)C2CCC2)CC2(CC3)OCCO2)cc1O (stereo not given) | 36.6 µM (inactive) | 17.9 µM (inactive) | 35.2 µM (inactive) | 14.9 µM | 0.182 µM (active) | 30.3 µM (inactive) | 34.8 µM (inactive) | 30.5 µM (inactive) | 46.1 µM (inactive) | 20.5 µM (inactive) | 38.8 µM (inactive) | 27.9 µM (inactive) | 6.7 µM (inactive) | 15.7 µM (inactive) | 30.7 µM (inactive) | 35.2 µM (inactive) | 37 µM (inactive) | 19.2 µM (inactive) | 84.1 µM (inactive) | 18 µM (inactive) |
| CCN(CC)CC1CCCCN1CC(=O)N1c2ccc(Br)cc2C(=O)Nc2cccnc21 (stereo not given) | > 100 µM (inactive) | > 100 µM (inactive) | > 100 µM (inactive) | > 100 µM | 27.2 µM (inactive) | > 100 µM (inactive) | > 100 µM (inactive) | 74.8 µM (inactive) | > 100 µM (inactive) | > 100 µM (inactive) | > 100 µM (inactive) | > 100 µM (inactive) | > 100 µM (inactive) | > 100 µM (inactive) | > 100 µM (inactive) | > 100 µM (inactive) | > 100 µM (inactive) | > 100 µM (inactive) | > 100 µM (inactive) | > 100 µM (inactive) |
| Cc1ncc([N+](=O)[O-])n1CCN(C)C(=O)CCCn1ccnc1[N+](=O)[O-] | > 100 µM (inactive) | > 100 µM (inactive) | > 100 µM (inactive) | > 100 µM | > 100 µM (inactive) | > 100 µM (inactive) | > 100 µM (inactive) | > 100 µM (inactive) | > 100 µM (inactive) | > 100 µM (inactive) | > 100 µM (inactive) | > 100 µM (inactive) | > 100 µM (inactive) | > 100 µM (inactive) | > 100 µM (inactive) | > 100 µM (inactive) | > 100 µM (inactive) | > 100 µM (inactive) | > 100 µM (inactive) | > 100 µM (inactive) |
